Experimental data from US4665064A, “Pharmaceutical compositions and methods for increasing zinc levels” (National Research Development Corporation, priority 1983, dated 1987).
Where two headings read alike, the source gives them in different places. Values belong to the compound of their own block, whether it stands above or below them.

Key:
physchem = type: physicochemical; conditions: for Kpart compared with maltol (compound and its 2:1 zinc complex): in words
Procedure: A good indication of the physical properties of a ligand-providing compound and of an zinc complex in this respect is provided by the value of the partition coefficient (Kpart)obtained on partition between n-octanol and Tris hydrochloride (20 mM, pH 7.4; Tris representing 2-amino-2 hydroxymethylpropane 1,3-diol) at 20° C. and expressed as the ratio (concentration in organic phase)/(concentration in aqueous phase). Preferred complexes show a value of Kpart for each ligand-providing compound of above 0.02 or 0.05 but less than 3.0, especially of above 0.2 but less than 1.0, together with a value of Kpart for the 2:1 zinc(II) complex of above 0.02 but less than 6.0, especially of 0.05 or 0.1 to 1.0. The value of Kpart for maltol is 0.66 and for the neutral 2:1 maltol:zinc complex is 0.11 which values lie in the especially preferred ranges. It will be appreciated, however, that the wide range of ligands which may be present in zinc complexes according to the present invention allows the preparation of complexes having partition coefficients lying throughout the entire ranges given. Thus, for example, a 2:1 complex having a higher partition coefficient than 0.1 may be obtained by using maltol as one ligand and another compound as the second ligand. Alternatively, higher partition coefficients may be obtained, if desired, by the use of hydroxypyrone compounds containing additional and/or larger aliphatic hydrocarbon group substituents on the ring.
Partition data on zinc complexes and on ligand-providing compounds
The partition coefficient Kpart, being the ratio (concentration in n-octanol)/(concentration in aqueous phase) on partition between n-octanol and aqueous tris hydrochloride (20 mM, pH 7.4; Tris represents 2-amino-2-hydroxymethylpropane 1,3-diol), is measured at 20° C. for zinc complexes containing various ligands and for their corresponding ligand-providing compounds as listed in Table 1. In the case of certain of the complexes the partition coefficient for the 2:1 ligand:zinc(II) complex is also measured in the presence of various amounts of the metal-free ligand-providing compound in excess of a b 1:2 zinc(II):compound ratio.
In each case, the material is dissolved initially in the aqueous Tris hydrochloride at a concentration of 10^-4 M in relation to zinc. The zinc complexes radiolabelled with ^65 Zn are prepared in situ in the buffer by the addition of ^65 Zn labelled ZnCl2 to an appropriate amount of the metal-free ligand-providing compound and subsequent adjustment of the pH to 7.4 by the addition of Tris free base. Acid washed glassware is used throughout and, following mixing of 5 ml of the 10^-4 M aqueous solution with 5 ml of n-octanol for 1 minute, the aqueous n-octanol mixture is centrifuged at 1,000 g for 30 seconds. […]

inverted rat jejunal sac = type: in vitro ADME, rat (male Sprague Dawley); conditions: 37° C., up to 1 hour, Krebs Ringer buffer
Excerpt: In the case of the hydroxypyrone ligands it will be seen that the uptake again increases with the increase in the amount of free compound which is present as a result of an increase in the amount of the 2:1 complex which is present.

[1] = recognised property; in words; cited from earlier work
human erythrocytes = type: in vitro ADME; conditions: not told
Procedure: The zinc complex was formed in situ in the buffered solution using ^65 Zn labelled ZnSO4 at a concentration of 0.25 mM together with maltol or ethylpyromeconic acid in a molar ratio of zinc:compound of 1:0, 1:2, 1:5, 1:10 or 1:20, i.e. the concentration of the ligand-providing compound being 0, 0.5, 1.25, 2.5 or 5 mM, respectively. The proportions of 1:2, 1:5, 1:10 and 1:20 provide an increasing amount of the neutral 2:1 zinc(II) complex together with varying amounts of the free compound as explained in Example 4, a small amount of Tris free base (to about 2 mM) being added to avoid an acid pH on reaction to form the complex.
It will be seen that the uptake increases with an increase in the amount of free compound present as the proportion of zinc present as the 2:1 ligand:zinc(II) complex is increased through the mass action effect.

apotransferrin = assay: Ability of zinc complexes to donate zinc to apotransferrin; type: biochemical; conditions: apotransferrin 10^-4 M, ZnSO4 10^-4 M with 10 molar proportion of maltol, pH 7.4, 37° C., 10 minutes
Procedure: Apotransferrin (10^-4 M) and the ^65 Zn radiolabelled zinc complex of maltol (the complex being prepared in situ in the buffer using ^65 Zn radiolabelled ZnSO4 at a concentration of 10^-4 M and a 10 molar proportion of maltol) were incubated together in Tris hydrochloride (50 mM, buffered to pH 7.4) at 37° C. for 10 minutes when a 1 ml aliquot was removed from the medium and added to a PD10 column. 0.5 ml fractions were collected directly into scintillation vials for counting.

[2] = in words

Compound: CCn1cccc(O)c1=O.[Zn] [zinc 1-ethyl-3-hydroxypyrid-2-one]
Uptake of zinc into serosal compartment of rat jejunal sac (inverted rat jejunal sac; Zinc:compound 1:2): 36.4 n. mole
Uptake of zinc into serosal compartment of rat jejunal sac (inverted rat jejunal sac; Zinc:compound 1:10): 24.2 n. mole

Compound: CC(=O)[O-].CC(=O)[O-].[Zn+2] [zinc acetate]
emetic property [1]: recognised emetics

Compound: CCc1occc(=O)c1[O-].CCc1occc(=O)c1[O-].[Zn+2] [zinc ethylpyromeconic acid]
Kpart compared with maltol (compound and its 2:1 zinc complex) (physchem): higher than those for maltol
uptake of the 2:1 complex in tests on the permeation of erythrocytes (human erythrocytes): greater uptake

Compound: O=S(=O)([O-])[O-].[Zn+2] [zinc sulphate]
emetic property [1]: recognised emetics

Further lines, with some results ahead:

Kpart compared with maltol (compound and its 2:1 zinc complex) (physchem): higher than those for maltol
logD (physchem; n-octanol/tris buffer, pH 7.4): -0.125
Compound: CCc1occc(=O)c1O [ethylpyromeconic acid, 2-ethyl-3-hydroxy-4-pyrone, reference compound]

Free compound Kpart (physchem; free ligand-providing compound, n-octanol/Tris hydrochloride 20 mM pH 7.4, 20° C.): 0.66
Compound: Cc1occc(=O)c1O [maltol, 3-hydroxy-2-methyl-4-pyrone, reference compound]

inhibition of the uptake of zinc (everted rat jejunum): no inhibition on the uptake of zinc
lability [2]: extremely labile
Compound: Cc1occc(=O)c1O.[Zn] [zinc maltol]
zinc removed from the zinc complex (apotransferrin): over 95%

permeation (everted rat jejunum): little permeation occurs
Compound: [Zn+2] [zinc]
non-specific binding to the mucosal surface (everted rat jejunum): rapidly removed from the incubation medium by binding to the mucosal surface
